For data set [1] the following is noted: amide bond, 13-membered ring, CDMT/NMM, DMF.
In data set [2] the target is T1, CFTR (F508del/MF-HBE cells) (Homo sapiens, UniProt P13569, DEL508-508).
T1 construct: human bronchial epithelial (HBE) cells derived from CF subjects heterozygous for F508del and a minimal function CFTR mutation (F508del/MF-HBE); endogenous in cells; host or cells: Primary human bronchial epithelial cells from CF subjects (F508del/MF genotype), differentiated at an air-liquid interface
As to the kind of experiment: Ussing chamber assay of CFTR-mediated short-circuit currents, Assay A (0.1 μM to 25 μM, 6 concentrations). The data set is classed as cell-based. The settings on record: with 33 nM potentiator and 18 μM Tezacaftor, 20% human serum; for Emax: 18-24 hours, read-out: A Max activity (%). The procedure, abridged:
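Short-circuit current was recorded at 37 °C under voltage clamp (0 mV) with amiloride 30 μM apically, forskolin 20 μM activation, then BPO/GlyH-101/inh-172 (20 μM each) to isolate CFTR current. Before recording, corrector exposure lasted 18–24 h with 18 μM tezacaftor, 20% human serum, and 33 nM (dose–response) or 44 nM (1 μM fixed) potentiator, maintained throughout.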

The target of data set [3] is T1, CFTR (F508del/MF-HBE cells). The data set is described as follows: Ussing chamber assay of CFTR-mediated short-circuit currents, Assay B (0.00001 μM to 25 μM, 12 concentrations). Format: cell-based. The settings on record: with 33 nM potentiator and 18 μM Tezacaftor, 20% human serum; for Emax: 18-24 hours, read-out: B Max activity (%). The method, then:
Ussing chamber experiments were performed using human bronchial epithelial (HBE) cells derived from CF subjects heterozygous for F508del and a minimal function CFTR mutation (F508del/MF-HBE) and cultured as previously described (Neuberger T, Burton B, Clark H, Van Goor F Methods Mol Biol 2011:741:39-54). After four days the apical media was removed, and the cells were grown at an air liquid interface for >14 days prior to use.
To isolate the CFTR-mediated short-circuit (ISC) current, F508del/MF-HBE grown on Costar® Snapwell™ cell culture inserts were mounted in an Ussing chamber and the transepithelial ISC was measured under voltage-clamp recording conditions (Vhold=0 mV) at 37° C. The basolateral solution contained (in mM) 145 NaCl, 0.83 K2HPO4, 3.3 KH2PO4, 1.2 MgCl2, 1.2 CaCl2, 10 Glucose, 10 HEPES (pH adjusted to 7.4 with NaOH) and the apical solution contained (in mM) 145 NaGluconate, 1.2 MgCl2, 1.2 CaCl2, 10 glucose, 10 HEPES (pH adjusted to 7.4 with NaOH) and 30 μM amiloride to block the epithelial sodium channel. Forskolin (20 μM) was added to the apical surface to activate CFTR, followed by apical addition of a CFTR inhibitor cocktail consisting of BPO, GlyH-101, and CFTR inhibitor 172 (each at 20 μM final assay concentration) to specifically isolate CFTR currents. The CFTR-mediated ISC (μA/cm^2) for each condition was determined from the peak forskolin response to the steady-state current following inhibition.
The activity of the CFTR corrector compounds on the CFTR-mediated ISC was determined in Ussing chamber studies as described above. The F508del/MF-HBE cell cultures were either incubated with the corrector compounds at a range of concentrations in combination with 33 nM (6R,12R)-17-amino-12-methyl-6,15-bis(trifluoromethyl)-13,19-dioxa-3,4,18-triazatricyclo[12.3.1.12,5]nonadeca-1(18),2,4,14,16-pentaen-6-ol and 18 μM Tezacaftor or were incubated with the corrector compounds at a single fixed concentration of 1 μM in combination with 44 nM (6R,12R)-17-amino-12-methyl-6,15-bis(trifluoromethyl)-13,19-dioxa-3,4,18-triazatricyclo[12.3.1.12,5]nonadeca-1(18),2,4,14,16-pentaen-6-ol and 18 μM Tezacaftor for 18-24 hours at 37° C. and in the presence of 20% human serum. The concentration of corrector compounds with 44 nM or 33 nM (6R,12R)-17-amino-12-methyl-6,15-bis(trifluoromethyl)-13,19-dioxa-3,4,18-triazatricyclo[12.3.1.12,5]nonadeca-1(18),2,4,14,16-pentaen-6-ol and 18 μM Tezacaftor during the 18-24 hours incubations was kept constant throughout the Ussing chamber measurement of the CFTR-mediated ISC to ensure compounds were present throughout the entire experiment. The efficacy and potency of the putative F508del correctors was compared to that of the known Vertex corrector, (14S)-8-[3-(2-{Dispiro[2.0.2.1]heptan-7-yl}ethoxy)-1H-pyrazol-1-yl]-12,12-dimethyl-2λ^6-thia-3,9,11,18,23-pentaazatetracyclo[17.3.1.111,14.05,10]tetracosa-1(22),5,7,9,19(23),20-hexaene-2,2,4-trione, in combination with 18 μM Tezacaftor and 1 μM Ivacaftor.
• Assay A: 0.1 μM to 25 μM, 6 concentrations • Assay B: 0.00001 μM to 25 μM, 12 concentrations • Assay C: 0.026 μM to 25 μM, 6 concentrations • Assay D: Activity at single concentration of 1 μM

The values below come from patent US20250340574A1, “MODULATORS OF CYSTIC FIBROSIS TRANSMEMBRANE CONDUCTANCE REGULATOR” (Vertex Pharmaceuticals Incorporated, priority 2022, published 2025).

Like-named read-outs stand apart in the source and are kept apart here.

T1 sequence (P13569 with tags, fused parts or gaps DEL508-508): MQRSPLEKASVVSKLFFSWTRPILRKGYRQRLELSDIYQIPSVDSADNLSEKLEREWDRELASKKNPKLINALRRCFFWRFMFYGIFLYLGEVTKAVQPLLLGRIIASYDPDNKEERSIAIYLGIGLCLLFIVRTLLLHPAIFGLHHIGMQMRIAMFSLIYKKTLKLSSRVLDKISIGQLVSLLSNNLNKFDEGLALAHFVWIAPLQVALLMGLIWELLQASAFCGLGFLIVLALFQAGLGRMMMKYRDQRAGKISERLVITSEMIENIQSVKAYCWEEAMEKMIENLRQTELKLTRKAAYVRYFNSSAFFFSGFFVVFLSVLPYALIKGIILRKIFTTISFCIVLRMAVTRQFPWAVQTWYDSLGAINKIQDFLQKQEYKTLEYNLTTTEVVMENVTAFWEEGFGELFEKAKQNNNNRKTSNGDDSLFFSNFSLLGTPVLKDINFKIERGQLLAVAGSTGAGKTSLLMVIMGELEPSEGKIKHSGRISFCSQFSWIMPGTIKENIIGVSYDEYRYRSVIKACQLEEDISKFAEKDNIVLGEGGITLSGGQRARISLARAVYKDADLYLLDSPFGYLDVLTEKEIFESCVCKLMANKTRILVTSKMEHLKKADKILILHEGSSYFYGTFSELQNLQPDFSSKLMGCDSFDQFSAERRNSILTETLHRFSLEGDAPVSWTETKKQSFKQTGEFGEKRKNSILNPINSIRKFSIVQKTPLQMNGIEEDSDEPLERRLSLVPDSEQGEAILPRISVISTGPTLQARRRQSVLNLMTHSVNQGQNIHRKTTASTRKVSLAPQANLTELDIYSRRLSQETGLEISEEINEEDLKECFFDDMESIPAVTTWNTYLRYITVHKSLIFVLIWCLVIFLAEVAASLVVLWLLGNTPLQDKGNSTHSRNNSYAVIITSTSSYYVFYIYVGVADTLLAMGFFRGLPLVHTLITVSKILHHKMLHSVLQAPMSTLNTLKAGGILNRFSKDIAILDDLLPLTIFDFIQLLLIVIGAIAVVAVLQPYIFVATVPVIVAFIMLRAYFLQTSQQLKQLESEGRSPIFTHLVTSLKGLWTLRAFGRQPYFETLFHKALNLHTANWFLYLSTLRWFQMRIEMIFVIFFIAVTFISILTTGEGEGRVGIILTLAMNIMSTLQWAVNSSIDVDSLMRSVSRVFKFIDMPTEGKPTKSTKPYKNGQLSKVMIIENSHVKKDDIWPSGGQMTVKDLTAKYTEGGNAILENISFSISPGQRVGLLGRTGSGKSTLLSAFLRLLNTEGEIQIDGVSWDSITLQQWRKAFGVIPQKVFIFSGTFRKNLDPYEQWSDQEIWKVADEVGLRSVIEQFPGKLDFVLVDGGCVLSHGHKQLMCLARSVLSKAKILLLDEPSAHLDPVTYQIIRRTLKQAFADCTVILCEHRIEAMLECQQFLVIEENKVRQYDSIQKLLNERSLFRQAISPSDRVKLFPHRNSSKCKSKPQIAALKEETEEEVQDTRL

Molecule `Cc1cccc(C)c1-c1cc2nc(n1)NS(=O)(=O)c1cccc(c1)C(=O)N(Cc1ccn3nc(C(C)C)cc3n1)[C@H](CC1(C)CC1)CO2` showed a ring closure, yield after HPLC in data set [1] (from Cc1cccc(C)c1-c1cc(OC[C@@H](CC2(C)CC2)NCc2ccn3nc(C(C)C)cc3n2)nc(NS(=O)(=O)c2cccc(C(=O)O)c2)n1, 9.91 mM, 25.0 °C, 16.5 h) of 43%.
Molecule `Cc1cccc(C)c1-c1cc2nc(n1)NS(=O)(=O)c1cccc(c1)C(=O)N(Cc1cnc3oc(C(C)(C)COCc4ccccc4)cc3n1)[C@H](CC13CC(C1)C3)CO2` showed a ring closure, yield after HPLC in data set [1] (from Cc1cccc(C)c1-c1cc(OC[C@@H](CC23CC(C2)C3)NCc2cnc3oc(C(C)(C)COCc4ccccc4)cc3n2)nc(NS(=O)(=O)c2cccc(C(=O)O)c2)n1, 31.3 mM, 16.0 h) of 69%.
In data set [1] (from Cc1cccc(C)c1-c1cc(OCC(CCC(C)(C)F)NCc2cnc3oc(C(C)C)cc3n2)nc(NS(=O)(=O)c2cccc(C(=O)O)c2)n1, 35.1 mM, 16.0 h), `Cc1cccc(C)c1-c1cc2nc(n1)NS(=O)(=O)c1cccc(c1)C(=O)N(Cc1cnc3oc(C(C)C)cc3n1)C(CCC(C)(C)F)CO2` (stereo not shown) yielded a ring closure, yield after HPLC of 65%.
With `Cc1cccc(C)c1-c1cc2nc(n1)NS(=O)(=O)c1cccc(c1)C(=O)N(Cc1cnc3oc(C4CC4)cc3n1)C(CCC1(C)CC1)CO2` (single isomer, unassigned; isomer 1), in data set [1] (from Cc1cccc(C)c1-c1cc(OCC(CCC2(C)CC2)NCc2cnc3oc(C4CC4)cc3n2)nc(NS(=O)(=O)c2cccc(C(=O)O)c2)n1, 12.8 mM, 24.5 h), the ring closure, yield after HPLC worked out at 48%.
In data set [1] (9.74 mM), “(5P,11R)-6-[2-(cyclopentylmethyl)-6-methylphenyl]-11-(2,2-dimethylpropyl)-7-methyl-12-{[5-methyl-6-(propan-2-yl)-5H-pyrrolo[2,3-b]pyrazin-3-yl]methyl}-9-oxa-2λ^6-thia-3,5,12,19-tetraazatricyclo[12.3.1.1∧{4,8}]nonadeca-1(17),4(19),5,7,14(18),15-hexaene-2,2,13-trione” registered a ring closure, yield after HPLC of 45%.
In data set [1] (from Cc1cccc(C)c1-c1cc(OC[C@H](NCc2cnc3cc(C(C)(C)C)n(C)c3n2)C2CCCO2)nc(NS(=O)(=O)c2cccc(C(=O)O)c2)n1, 15.5 mM, 25.0 °C, 20.0 h), `Cc1cccc(C)c1-c1cc2nc(n1)NS(=O)(=O)c1cccc(c1)C(=O)N(Cc1cnc3cc(C(C)(C)C)n(C)c3n1)[C@H](C1CCCO1)CO2` (single isomer, unassigned; isomer b) returned a ring closure, yield after HPLC of 55%.
Regarding `Cc1cccc(C)c1-c1cc2nc(n1)NS(=N)(=O)c1cccc(c1)C(=O)N(Cc1cnc3oc(C4CC4)cc3n1)[C@H](CC(C)(C)C)CO2` (single isomer, unassigned; isomer a), the ring closure, yield after HPLC in data set [1] (from 3-[[[4-[(2R)-2-[(6-Cyclopropylfuro[2,3-b]pyrazin-2-yl)methylamino]-4,4-dimethyl-pentoxy]-6-(2,6-dimethylphenyl)pyrimidin-2-yl]amino]sulfonimidoyl]benzoic acid (hydrochloride salt) (isomer A), 14.2 mM) stood at 23%.
In data set [1] (14.0 mM), “(5P,11R)-12-({6-tert-butyl-5-methyl-5H-pyrrolo[2,3-b]pyrazin-3-yl}methyl)-11-(2,2-dimethylpropyl)-7-methyl-6-[2-methyl-6-(2-methylpropyl)phenyl]-9-oxa-2λ^6-thia-3,5,12,19-tetraazatricyclo[12.3.1.1∧{4,8}]nonadeca-1(17),4(19),5,7,14(18),15-hexaene-2,2,13-trione” registered a ring closure, yield after HPLC of 61%.
Molecule “(5P,11R)-7-methyl-6-[2-methyl-6-(2-methylpropyl)phenyl]-12-({5-methyl-6-[1-(trifluoromethyl)cyclopropyl]-5H-pyrrolo[2,3-b]pyrazin-3-yl}methyl)-11-[(propan-2-yloxy)methyl]-9-oxa-2λ^6-thia-3,5,12,19-tetraazatricyclo[12.3.1.1∧{4,8}]nonadeca-1(18),4(19),5,7,14,16-hexaene-2,2,13-trione” showed a ring closure, yield after HPLC in data set [1] (13.9 mM, 25.0 °C) of 65%.
With `Cc1cccc(C)c1-c1cc2nc(n1)NS(=O)(=O)c1cccc(c1)C(=O)N(Cc1cnc3oc(C(C)C)cc3n1)[C@@H](CCC1(C)CC1)CO2` (stereo in doubt) [Compound I-70], in data set [2], the Emax was > 60% and the EC50 is < 1 µM. In addition, in data set [3], the Emax was > 60% and the EC50 is 3 to 30 µM.
In the case of `Cc1cccc(C)c1-c1cc2nc(n1)NS(=O)(=O)c1cccc(c1)C(=O)N(Cc1cnc3oc(C4CC4)cc3n1)[C@H](CCC(C)(C)C)CO2` [Compound I-24], the Emax in data set [2] and in data set [3] was > 60% throughout. In addition, the EC50 in data set [2] is < 1 µM; in data set [3], 1 to 3 µM.
Consider `Cc1cccc(C)c1-c1cc2nc(n1)NS(=O)(=O)c1cccc(c1)C(=O)N(Cc1cnc3oc(C(C)C)cc3n1)[C@H](CC1CC1)CO2` [Compound I-57], for which the Emax in data set [2] and in data set [3] was > 60% each time. The concentration giving a half-maximal response (EC50) in data set [2] was < 1 µM; in data set [3], 3 to 30 µM.
With `Cc1cccc(C)c1-c1cc2nc(n1)NS(=O)(=O)c1cccc(c1)C(=O)N(Cc1cnc3cc(C(C)(C)C)n(C)c3n1)[C@H](C1CCCO1)CO2` (single isomer, unassigned; isomer a), in data set [1] (from Cc1cccc(C)c1-c1cc(OC[C@H](NCc2cnc3cc(C(C)(C)C)n(C)c3n2)C2CCCO2)nc(NS(=O)(=O)c2cccc(C(=O)O)c2)n1, 13.2 mM, 25.0 °C, 20.0 h), the ring closure, yield after HPLC came out at 53%.
For `Cc1cccc(C)c1-c1cc2nc(n1)NS(=O)(=O)c1cccc(c1)C(=O)N(Cc1cnc3oc(C4CC4)cc3n1)C(CCC1(C)CC1)CO2` (single isomer, unassigned) [Compound I-71, 12-[(6-cyclopropylfuro[2,3-b]pyrazin-2-yl)methyl]-6-(2,6-dimethylphenyl)-11-[2-(1-methylcyclopropyl)ethyl]-2,2-dioxo-9-oxa-2λ^6-thia-3,5,12,19-tetrazatricyclo[12.3.1.14,8]nonadeca-1(18),4(19),5,7,14,16-hexaen-13-one], in data set [2], the Emax is > 60% and the EC50 was < 1 µM. Besides, in data set [3], the Emax is > 60% and the EC50 is 3 to 30 µM.
The molecule “(5P,11R)-11-({bicyclo[1.1.1]pentan-1-yl}methyl)-12-({6-tert-butyl-5-methyl-5H-pyrrolo[2,3-b]pyrazin-3-yl}methyl)-7-methyl-6-[2-methyl-6-(2-methylpropyl)phenyl]-9-oxa-2λ^6-thia-3,5,12,19-tetraazatricyclo[12.3.1.1∧{4,8}]nonadeca-1(17),4(19),5,7,14(18),15-hexaene-2,2,13-trione” came in with a ring closure, yield after HPLC in data set [1] (22.6 mM, 25.0 °C) of 76%.
Consider `Cc1cccc(C)c1-c1cc2nc(n1)NS(=O)(=O)c1cccc(c1)C(=O)N(Cc1cnc3oc(C4(C)CC4)cc3n1)[C@H](CC13CC(C1)C3)CO2` [Compound I-97], for which, in data set [2], the Emax was > 60% and the concentration for a half-maximal effect (EC50) was < 1 µM. In data set [3], the Emax is > 60% and the EC50 is 1 to 3 µM.

Broadly, the EC50 is the concentration at which the effect is half-maximal.
